Measurements from patent US9364496B2 (ONCOGENEX TECHNOLOGIES INC., priority 2013, dated 2016).
Where “and” joins values, the source holds several entries; their conditions need not be identical. Equal values may be shown once. Read-outs that look alike come from different tables or passages of the source. Oligonucleotides are written 5' to 3', each unit as a sugar letter and its base; * is a phosphorothioate linkage, no mark a phosphodiester; rarer units and linkages stand in square brackets, end groups in braces. Plain capitals give the bases only. e = 2'-O-(2-methoxyethyl) (MOE); [5mC] = 5-methylcytosine; d = 2'-deoxy (DNA)

Legend:
[1] = test system: RPMI 8226 (human myeloma) xenograft; experiment: In vivo activity of custirsen with Velcade, RPMI 8226 xenograft (Example 14); settings: for weight / Δ weight / volume / Δ volume / % of baseline / Δ %: later day (day not given); for volume / Δ volume: tumor; for % of baseline / Δ %: weight
Experimental: The cells were implanted subcutaneously into female SCID mice with 7×10^6 cells inoculum.
Tumors and body weights were measured weekly until termination of the study on day 71. Response to treatment was evaluated for tumor growth inhibition (TGI) and tumor growth delay (TGD).
70 CB.17 SCID female mice, 4-6 weeks old, 16-20 grams, obtained from Harlan animal breeding center.
Sample from the cell suspension was taken for counting (0.3 ml in duplicates for CEDEX) before spun down. Cell viability was 85.6% and live cell concentration was 167×10^5 cells/ml. The pellet was resuspended in HBSS to a final volume of 8 ml.
Tumors were implanted subcutaneously with RPMI-8226 cells into the right flank of the mouse on Day 0. Each animal received a s.c. injection 7×10^6 cells in 0.1 ml suspension. On day 20, mice were sorted by the optimal tumor volume ([…]) and were allocated into 5 groups of 10 mice. Mice were individually tagged and their tumor volume and body weight were monitored weekly during the study. Tumor size was measured by caliper and calculated using the formula: […]
The treatment started on […] (0.2 ml per 20 grams v/w) and continued till day 52, after which the remaining mice were left for observation until day 71.

lung cancer = type: in vivo, human; settings: each group; loading doses then custirsen with a chemotherapeutic agent
Description: At least 50 lung cancer patients are separated into two groups.

ovarian cancer = type: in vivo, human; settings: each group; loading doses then custirsen with a chemotherapeutic agent
Description: At least 50 ovarian cancer patients are separated into two groups.

NSCLC = type: in vivo, human; settings: each group; loading doses then custirsen with a chemotherapeutic agent
Description: At least 50 NSCLC patients are separated into two groups.

[2] = human, in vivo
[3] = in vivo
[4] = in vivo; remark: listed apart in the source
[5] = Custirsen up-titration with dexamethasone premedication, tolerability and ECG Holter (discussion); settings: with or without premedication with dexamethasone
[6] = OGX 40 ip qd*5, twk, group Mean, n 10
[7] = OGX 40 ip qd*5, twk, group Mean, n 10, vs Day 20
[8] = OGX 40 ip qd*5, twk, individual mouse, listed as OGX
[9] = OGX 40 ip qd*5, twk, individual mouse, vs Day 20, listed as OGX
[10] = OGX 40 ip qd*5, twk, group mean

Substance: Custirsen: anti-clusterin antisense oligonucleotide CAGCAGCAGAGTCTTCATCAT, phosphorothioate backbone, 2′-O-methoxyethyl at nucleotides 1-4 and 18-21, 5-methylcytosines at 1, 4, 19 (antisense e[5mC]*eA*eG*e[5mC]*dA*dG*dC*dA*dG*dA*dG*dT*dC*dT*dT*dC*dA*eT*e[5mC]*eA*eT; listed as Homo sapiens)
- Day 27 % of baseline (weight) [1, 6]: 102.6%
- Day 27 volume [1, 6]: 219.2
- Day 27 weight [1, 6]: 19.0
- Day 34 % of baseline (weight) [1, 6]: 95.3%
- Day 34 volume [1, 6]: 263.1
- Day 34 weight [1, 6]: 17.7
- Day 27 Δ % (weight) [1, 7]: 2.6%
- Day 27 Δ volume [1, 7]: 76.4
- Day 27 Δ weight [1, 7]: 0.4
- Day 34 Δ % (weight) [1, 7]: −4.7%
- Day 34 Δ volume [1, 7]: 120.3
- Day 34 Δ weight [1, 7]: −0.8
- Day 20 volume [1, 8]: 119 and 124 and 125 and 139 and 141 and 145 and 151 and 155 and 162 and 169
- Day 20 weight [1, 8]: 16.1 and 17.7 and 17.1 and 20.6 and 19.7 and 18.6 and 18.4 (2×) and 20.0 and 18.9
- Day 27 % of baseline (weight) [1, 8]: 113.2% and 102.5% and 100.3% and 98.7% and 102.4% and 101.7% and 100.5%
- Day 27 volume [1, 8]: 96 and 207 and 171 and 249 and 222 and 246 and 319 and 193 and 217 and 271
- Day 27 weight [1, 8]: 18.2 (2×) and 18.0 and 20.8 and 19.7 and 18.4 and 18.9 and 20.3 and 18.6 and 19.0
- Day 34 % of baseline (weight) [1, 8]: 84.3% and 98.1% and 99.6% and 94.5% and 97.3% and 96.5% and 98.9% and 95.3% and 93.3% and 95.4%
- Day 34 volume [1, 8]: 98 and 244 and 223 and 257 and 305 and 336 and 371 and 220 and 266 and 312
- Day 34 weight [1, 8]: 13.5 and 17.4 and 17.1 and 19.5 and 19.1 and 18.0 (2×) and 18.2 and 19.0 and 17.2
- Day 41 % of baseline (weight) [1, 8]: 100.4% and 100.3% and 99.5% and 95.8% and 100.1% and 104.4% and 101.6%
- Day 41 volume [1, 8]: 454 and 474 and 560 and 267 and 320 and 457 and 410 and 295 and 322
- Day 41 weight [1, 8]: 19.8 and 18.7 and 19.5 and 19.9 and 17.6 and 18.9 and 18.8 and 17.9 and 20.9
- Day 45 % of baseline (weight) [1, 8]: 104.1% and 102.7% and 111.4% and 101.5% and 108.1% and 109.8%
- Day 45 volume [1, 8]: 587 and 584 and 826 and 467 and 428 and 490 and 511 and 272 and 579
- Day 45 weight [1, 8]: 20.5 and 19.1 (2×) and 20.6 and 21.1 and 18.7 and 19.2 and 18.8 and 21.9
- Day 27 Δ % (weight) [1, 9]: 13.2% and 2.5% and 4.8% and 1.1% and 0.3% and −1.3% and 2.4% and 1.7% and 0.8% and 0.5%
- Day 27 Δ volume [1, 9]: −23.1 and 84.0 and 46.2 and 110.4 and 81.2 and 100.3 and 168.8 and 38.8 and 55.3 and 102.6
- Day 27 Δ weight [1, 9]: 2.1 and 0.4 (2×) and 0.8 and 0.2 (2×) and 0.1 (2×) and −0.3 and 0.3
- Day 34 Δ % (weight) [1, 9]: −15.7% and −1.9% and −0.4% and −5.5% and −2.7% and −3.5% and −1.1% and −4.7% and −6.7% and −4.6%
- Day 34 Δ volume [1, 9]: −20.6 and 120.3 and 97.9 and 117.8 and 163.9 and 190.8 and 219.9 and 65.4 and 104.3 and 142.9
- Day 34 Δ weight [1, 9]: −2.5 and −0.3 and −0.1 and −1.1 and −0.5 and −0.6 and −0.2 and −0.9 (2×) and −1.2
- Day 41 Δ % (weight) [1, 9]: 0.4% and 0.3% and 5.9% and −0.5% and −4.2% and 0.1% and 6.0% and 4.4% and 1.6%
- Day 41 Δ volume [1, 9]: 313.0 and 328.4 and 409.6 and 112.3 and 157.8 and 288.2 and 286.2 and 170.4 and 183.5
- Day 41 Δ weight [1, 9]: 0.1 (2×) and 1.1 (2×) and −0.1 and −0.8 and 0.0 and 0.8 and 0.3
- Day 45 Δ % (weight) [1, 9]: 4.1% and 2.7% and 11.4% and 5.6% and 1.5% and 1.3% and 8.1% and 9.8% and 6.1%
- Day 45 Δ volume [1, 9]: 446.1 and 439.0 and 675.2 and 313.0 and 266.0 and 321.7 and 388.0 and 147.2 and 440.5
- Day 45 Δ weight [1, 9]: 0.8 and 0.5 and 2.1 and 1.1 and 0.3 and 0.2 and 1.4 and 1.7 and 1.3
- weight [1, 10]: 20.5
- Δ weight [1, 10]: 1.6
- volume [1, 10]: 1717.4
- Δ volume [1, 10]: 1572.6
- % of baseline [1, 10]: 108.3%
- Δ % [1, 10]: 8.3%
- weight [1, 8]: 21.04 and 22.19 and 19.81 and 20.11
- Δ weight [1, 8]: 1.4 (2×) and 2.2 and 1.2
- volume [1, 8]: 2185 and 1918 and 1519 and 2426
- Δ volume [1, 8]: 2043.7 and 1763.0 and 1357.1 and 2257.1
- % of baseline [1, 8]: 106.9% and 111.2% and 107.7% and 106.4%
- Δ % [1, 8]: 6.9% and 11.2% and 7.7% and 6.4%
- mice died ([1]; custirsen 40 mg/kg group, day 34): one
- injections given before treatment was stopped due to toxicity ([1]; custirsen 40 mg/kg, both groups (5 consecutive + 2 on the next week)): 7 injections
- tumor growth inhibition by the end of the study ([1]; custirsen 40 mg/kg, either alone or in combination): significantly inhibited tumor growth
- cancer condition of patients (lung cancer): improves
- cancer condition of patients (ovarian cancer): improves
- cancer condition of patients (NSCLC): improves
- INR values [2]: ≤ 1.5
- grade 1 increase in PTT, number [2]: 1
- hepatic transaminase elevations [2]: Grade 1 and 2
- incidence of elevated liver function tests (ELFTs) [2]: higher incidence
- INR values [3]: ≤ 1.5
- reports of grade 2 toxicity for PTT [3]: 2 reports
- chills, patients [4]: 35%
- fever, patients [4]: 50%
- occurrence of grade 3/4 hepatic toxicity [4]: rare
- severity of fever and chills/rigors [4]: usually mild (grade 1-2)
- time of appearance of fever and chills/rigors after the infusion [4]: 4 to 8 h
- effect of up-titration (reduced loading doses) on constitutional syndrome / side effects [5]: mitigated
